# Values quoted from earlier work as cited in the CATMoS acute toxicity set (Mansouri et al. 2021).
# Values joined by “and” are separate entries in the source; they are usually repeats but may differ in a detail not shown here. Equal values may be shown once.
# Assay: rat acute oral toxicity
# Details: in vivo
row,SMILES,LD50
1,CCc1cccc2c3c([nH]c12)C(CC)(CC(=O)O)OCC3 (centres undefined),94 mg/kg
2,CN(N=Nc1ccccc1)N=Nc1ccccc1,212 mg/kg
3,CCc1cc(CC)cc(OC(=O)NC)c1,1600 mg/kg
4,CC=CC=CC#N,712 mg/kg
5,CC1=NN(c2ccccc2)C(=O)C1,1920 mg/kg
6,C#CCC1=C(C)C(OC(=O)C2C(C=C(C)C)C2(C)C)CC1=O (centres undefined),460 mg/kg
7,CNCC12CCC(c3ccccc31)c1ccccc12,700 mg/kg and 600 mg/kg
8,Cc1cc(O)c(C(C)(C)C)cc1Sc1cc(C(C)(C)C)c(O)cc1C,2340 mg/kg
9,C=Cc1ccccc1Cl,5200 mg/kg
10,CC(=O)Nc1cccc(N=Nc2ccc(N(C)C)cc2)c1,5910 mg/kg
11,CCCCCCCCCN(CCCCCCCCC)CCCCCCCCC,5600 mg/kg
12,CC(C)COC(=O)C(C)Oc1ccc(Oc2ccc(Cl)cc2)cc1 (centres undefined),723 mg/kg
13,O=C(O)c1cc(-n2c(-c3ccccc3)cc3c2CCc2ccccc2-3)ccc1O,450 mg/kg
14,NC(=S)c1c(Cl)cccc1Cl,757 mg/kg
15,CCOC(=O)Nc1ccc(NCc2ccc(F)cc2)nc1N,1660 mg/kg
16,CN(C)N=Nc1ccc([N+](=O)[O-])cc1,1660 mg/kg
17,CC(C)(C)N(CCO)CCO,2720 mg/kg
18,C=C(Cl)C(Cl)CCl (centres undefined),341 mg/kg
19,[SiH3]CCCCC(Cl)(Cl)Cl,2340 mg/kg
20,CC1OCC2C(CO1)C1(Cl)C(Cl)=C(Cl)C2(Cl)C1(Cl)Cl (centres undefined),120 mg/kg
21,CN(C)N,122 mg/kg and 196 mg/kg
22,CC(C)(C)N1CCC(c2ccccc2)(c2ccccc2)CC1,165 mg/kg
23,Nc1ccc(Oc2ccc(S(=O)(=O)c3ccc(Oc4ccc(N)cc4)cc3)cc2)cc1,220 mg/kg
24,CN1CCN(CCCN2c3ccccc3Sc3ccc(C(F)(F)F)cc32)CC1,543 mg/kg
25,Nc1nncs1,253 mg/kg

row,SMILES,LD50
1,CCSC(=O)NCCCN(C)C,1300 mg/kg
2,CN(SSC(C)(C)C)C(=O)ON=C1SCCS1,5.6 mg/kg
3,CCCCC(O)c1ccccc1 (centres undefined),5430 mg/kg
4,Cc1ccc(C(=O)c2ccc(CC(=O)NCCn3cnc4c3c(=O)n(C)c(=O)n4C)n2C)cc1,1200 mg/kg
5,Brc1nc(Br)c(Br)[nH]1,34 mg/kg
6,Cc1ccc2c(-c3ccccc3)nc(=O)n(C(C)C)c2c1,759 mg/kg
7,CC(C)(C(N)=O)c1ccccc1,1650 mg/kg
8,S=C(C=Cc1ccc2c(c1)OCO2)N1CCOCC1,285 mg/kg
9,OCC(O)C1CC=CCC1 (centres undefined),1070 mg/kg
10,c1ccc2c(OCCN3CCCC3)ccnc2c1,280 mg/kg
11,CCC(CC)COCCC#N,2460 mg/kg
12,CN(C)CCCN1c2ccccc2CCc2ccc(Cl)cc21,914 mg/kg and 613 mg/kg
13,CCCCN(COC(C)=O)N=O,1500 mg/kg
14,C1CNCCN1,4900 mg/kg
15,ClCc1ccccc1CCl,2260 mg/kg
16,COc1cc2c(cc1OC)C1Cc3ccc(OC)c(OC)c3CN1CC2 (centres undefined),580 mg/kg
17,COc1ccc(OCC(=O)N[C@@H]2C(=O)N3[C@@H]2SC(C)(C)[C@@H]3C(=O)O)cc1F,7000 mg/kg
18,CCCCOC(=O)Cc1ccc(N(CCCl)CCCl)cc1,20 mg/kg
19,O=C[C@H](O)[C@@H](O)[C@H](O)[C@H](O)CO,25800 mg/kg
20,Cc1ccccc1N(CCO)CCO,2200 mg/kg
21,COB1OB(OC)OB(OC)O1,5160 mg/kg
22,C[C@H](Oc1ccc(Oc2nc3ccc(Cl)cc3o2)cc1)C(=O)O,2090 mg/kg
23,CC(=O)OCC(=O)NCCCOc1cccc(CN2CCCCC2)c1,755 mg/kg
24,Cc1c(N)nc(C)c2c1[nH]c1ccccc12,100 mg/kg
25,CC(=O)c1cccc([N+](=O)[O-])c1,3250 mg/kg

row,SMILES,LD50
1,OC[P+](CO)(CO)CO,232 mg/kg
2,CC(Cl)COP(=O)(OCC(C)Cl)Oc1ccc([N+](=O)[O-])cc1 (centres undefined),173 mg/kg
3,N#CSc1ccc(C(=O)O)cc1,83 mg/kg
4,CCCCC(CC)CCC(CC(C)C)OS(=O)(=O)O (centres undefined),1250 mg/kg
5,COc1ccc(Cc2nccc3cc(OC)c(OC)cc23)cc1OC,68.8 mg/kg
6,CCCCCCCCCCCCCCCCCC1=NC(C)CC(C)(C)N1 (centres undefined),493 mg/kg
7,CCCCB(CCCC)CCCC,1120 mg/kg
8,CCCCOC(=O)CCC(=O)OCCCC,8000 mg/kg
9,C1CCC2OCCOCCOC3CCCCC3OCCOCCOC2C1 (centres undefined),176 mg/kg
10,CCCCc1c(OC(=O)c2ccccc2)n(-c2ccccc2)n(-c2ccccc2)c1=O,2200 mg/kg
11,Cc1cncc(C)n1,880 mg/kg
12,O=[N+]([O-])c1ccc(O)c(CNCCO)c1,23 mg/kg
13,CCN(CCCl)c1ccccc1,616 mg/kg
14,CC(C)CCO,1300 mg/kg
15,CN(C)CCCN(C)[C@H]1CC[C@H]2[C@@H]3CC=C4C[C@@H](O)CC[C@]4(C)[C@H]3CC[C@]12C,470 mg/kg
16,c1cncc(C2CCCCN2)c1 (centres undefined),210 mg/kg and 235 mg/kg
17,Oc1cc(Cl)ccc1Oc1ccc(Cl)cc1Cl,3700 mg/kg
18,COP(=S)(OC)SC(CBr)N1C(=O)c2ccccc2C1=O (centres undefined),188 mg/kg
19,CCCCNC(=O)OCC(C)(CCC)COC(N)=O (centres undefined),1040 mg/kg
20,Cn1c([N+](=O)[O-])cnc1COC(N)=O,3400 mg/kg
21,CNC(=O)Oc1c(C(C)C)ccc(C)c1N(C)C,67 mg/kg
22,NC(=S)Nc1ccccc1,3 mg/kg
23,CC(O)CF (centres undefined),3260 mg/kg
24,CC(=O)OC1c2cccc(O)c2C(=O)c2c(O)cccc21,347 mg/kg
25,NC(=O)N/N=C/c1ccc([N+](=O)[O-])o1,590 mg/kg

row,SMILES,LD50
1,COc1c2ccoc2cc2oc(CO[C@@H]3O[C@H](CO)[C@@H](O)[C@H](O)[C@H]3O)cc(=O)c12,1470 mg/kg
2,NNS(=O)(=O)c1ccc(Oc2ccc(S(=O)(=O)NN)cc2)cc1,2300 mg/kg
3,CNC(=O)ON=C1SC(=NN(C)C)SC1(C)C,1.8 mg/kg
4,CC(=O)OC(C)OC(=O)C(C)c1ccc(-c2ccccc2)c(F)c1 (centres undefined),66 mg/kg
5,C=CCOc1ccccc1C(N)=O,780 mg/kg
6,O=NN1CCOC1,1500 mg/kg
7,CSc1nc(-c2ccc(Cl)cc2)n(-c2ccc(Cl)cc2)n1,770 mg/kg
8,O=C(C=Cc1ccccc1)OCC=Cc1ccccc1,4200 mg/kg
9,O=C1NCCN1/N=C/c1ccc([N+](=O)[O-])o1,1680 mg/kg
10,C=CC=C,5480 mg/kg
11,CCN(C(C)=O)c1c(I)cc(I)c(OCCOC(C)C(=O)O)c1I (centres undefined),1600 mg/kg
12,CCOC(=O)C=CN(C)C,4500 mg/kg
13,COP(=S)(OC)Oc1ccc2c(C)cc(=O)oc2c1,15.6 mg/kg
14,O=C1CCC(=O)N1,14000 mg/kg
15,Clc1cc(Cl)c(-c2c(Cl)c(Cl)c(-c3c(Cl)cc(Cl)c(Cl)c3Cl)c(Cl)c2Cl)cc1Cl,16000 mg/kg
16,CC=C(CC)C(=O)NC(N)=O,2500 mg/kg
17,NCCCNCCNCCCN,1200 mg/kg
18,CNC(=O)Oc1cc(C(C)(C)C)cc(C(C)(C)C)c1,1800 mg/kg
19,CCOc1ccc(N2C(=O)C=CC2=O)cc1,630 mg/kg
20,FC(F)(F)c1nc2c(Br)cc(Cl)cc2[nH]1,7.18 mg/kg
21,Fc1c(F)c(F)c2[nH]c(C(F)(F)F)nc2c1F,3.33 mg/kg
22,CC(C/N=C/c1ccccc1O)/N=C/c1ccccc1O (centres undefined),4560 mg/kg
23,CC(=O)CO,2200 mg/kg
24,CCC(C)NCC(O)c1ccc(N)cc1 (centres undefined),650 mg/kg
25,COCCc1ccc(OCC(O)CNC(C)C)cc1 (centres undefined),3470 mg/kg

row,SMILES,LD50
1,CCOC(C1=NCCCN1)c1ccc(Cl)cc1 (centres undefined),875 mg/kg
2,CCN(CC)C(=O)Nc1ccc(OCC(O)CNC(C)(C)C)c(C(C)=O)c1 (centres undefined),2160 mg/kg
3,CCN(CC)CCN1C(=O)CN=C(c2ccccc2F)c2cc(Cl)ccc21,879 mg/kg and 980 mg/kg and 978 mg/kg
4,CCN(CC)CCNC(=O)c1ccc(N)cc1,1950 mg/kg
5,O=C(NCCN1CCOCC1)c1ccc(Cl)cc1,707 mg/kg
6,CC(C)(C=O)CO,3200 mg/kg
7,O=C(O)Cc1ccccc1Oc1ccc(Cl)cc1Cl,2280 mg/kg
8,O=C(C=Cc1ccccn1)OCCN1CCN(c2ccc(Cl)cc2)CC1,478 mg/kg
9,C(=N\C(/N=C/c1ccco1)c1ccco1)/c1ccco1,400 mg/kg
10,Cc1cccc(C(C)C)c1,2970 mg/kg
11,Nc1ccc(/N=N/c2ccc(-c3ccc(/N=N/c4c(S(=O)(=O)O)cc5cc(S(=O)(=O)O)c(/N=N/c6ccccc6)c(O)c5c4N)cc3)cc2)c(N)c1,7600 mg/kg
12,COc1cc(Oc2ccc(Cl)cc2Cl)ccc1[N+](=O)[O-],18000 mg/kg
13,O=C(Nc1nc2ccc([N+](=O)[O-])cc2s1)c1ccc([N+](=O)[O-])cc1,1500 mg/kg
14,O=c1[nH]nc2n1-c1cc([N+](=O)[O-])cc([N+](=O)[O-])c1OC2,3690 mg/kg
15,CNC(=O)Oc1cccc2c1OC(C)(C)C2=O,295 mg/kg
16,CCc1ccc(Oc2ccc(C)cc2CC(=O)O)c(Cl)c1,2850 mg/kg
17,c1ccc(CNc2ncnc3c2NCN3)cc1,2100 mg/kg
18,CN1C(C(=O)Nc2ccccn2)=C(OC(=O)C(C)(C)C)c2sc(Cl)cc2S1(=O)=O,24.6 mg/kg
19,CC(=O)c1ccc2c(c1)N(CCCN1CCOCC1)c1ccccc1S2,2500 mg/kg
20,CN1CCC(N(Cc2cccs2)c2ccccc2)CC1,1060 mg/kg
21,CCCCCCCCCc1ccc(C)cc1O,4000 mg/kg
22,Clc1ccc2ncoc2c1,791 mg/kg
23,CC(C)OP(=S)(CCl)Sc1ccc(Br)cc1 (centres undefined),23 mg/kg
24,CCC(CC)COCCOC(=O)CCCCC(=O)OCCOCC(CC)CC,3250 mg/kg
25,OCCCS,116 mg/kg

row,SMILES,LD50
1,CC=CCO,793 mg/kg
2,O=C(O)CCCCCCCCC(=O)O,14400 mg/kg
3,CC(C)c1cccc(C(C)(C)O)c1,6000 mg/kg
4,CNC(=O)ON=C(C)C(C)SC (centres undefined),153 mg/kg
5,CC(C)C1=CCC(CCOC=O)=CC1,3570 mg/kg
6,CC(C)(C)C(O)/C(=C\c1ccc(Cl)cc1Cl)n1cncn1 (centres undefined),474 mg/kg
7,CCOC(=O)C1=CN(CC)C2CCCC(C)N2C1=O (centres undefined),746 mg/kg
8,C=Cc1cccc(Cl)c1,5200 mg/kg
9,CCCCCCC[N+](CC)(CC)CCCCc1ccc(Cl)cc1,456 mg/kg
10,COC(=O)Cc1cccc2ccccc12,1900 mg/kg
11,CCN(CC)CCNC(=O)c1cc([N+](=O)[O-])c(N(C)C)cc1OC,856 mg/kg
12,CCc1nc(N)nc(N)c1-c1ccc(Cl)cc1,440 mg/kg
13,CC(C)N1CCCC1=O,2900 mg/kg
14,CCCCCCCCc1ccccc1O,2800 mg/kg
15,FC(F)(F)c1nc2ccc(-c3ccccc3)cc2[nH]1,69 mg/kg
16,CCOc1ccc(NC(=O)CC(C)O)cc1 (centres undefined),7000 mg/kg
17,O=C1C(CCSc2ccccc2)C(=O)N(c2ccccc2)N1c1ccccc1,450 mg/kg
18,Cc1ccc(SN2C(=O)c3ccccc3C2=O)cc1,5060 mg/kg
19,BrC=Cc1ccccc1,1250 mg/kg
20,COC(=O)C1=C(C)NC(C)=C(C(=O)OCC(C)=O)C1c1ccccc1[N+](=O)[O-] (centres undefined),1460 mg/kg
21,CCCOc1cccc(C)c1N(COCC)C(=O)CCl,2600 mg/kg
22,CCOC(=O)NNc1nncc2ccccc12,318 mg/kg and 598 mg/kg
23,O=C(Cl)c1ccc([N+](=O)[O-])cc1,5600 mg/kg
24,Cc1cc(Cl)ccc1/N=C/N(C)C,225 mg/kg
